From US9187472B2 (AbbVie Inc., priority 2012, dated 2015) come the findings set out here.

This assay concerns PC3 cells. Kind of assay: NAMPT Cell Proliferation Assay. It is filed as cell-based. The following applies: Homo sapiens, PC-3, 120 h, 5 days incubation, cell viability by Cell Titer Glo. The procedure, abridged:
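Cell Titer Glo viability after 5-day exposure (37° C, 5% CO2); PC3, 500 cells/well, RPMI + 10% heat-inactivated FBS, overnight attachment before dosing. Dose range 10 μM to 1×10^−5 μM, 10-fold steps. IC50 = sigmoidal fit of % inhibition.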
A general note: In ATP-based viability assays light output follows the ATP content of the culture.
Compound `O=C(Cc1ccc2nccn2c1)Nc1ccc(C2CCN(C(=O)c3ccc(F)cc3F)CC2)cc1` [Example 866, N-{4-[1-(2,4-difluorobenzoyl)piperidin-4-yl]phenyl}-2-(imidazo[1,2-a]pyridin-6-yl)acetamide] returned an IC50 of 0.525 nM.

Regarding `Cn1c(C(=O)N2CCC(c3ccc(C(=O)NCc4ccn5ccnc5c4)cc3)CC2)cc2occc21` [Example 995, N-(imidazo[1,2-a]pyridin-7-ylmethyl)-4-{1-[(4-methyl-4H-furo[3,2-b]pyrrol-5-yl)carbonyl]piperidin-4-yl}benzamide], the IC50 was 10.8 nM.

The compound `CCc1cc(C(=O)N2CCC(c3ccc(NC(=O)NCc4ccn5ccnc5c4)cc3)CC2)on1` [Example 1055, 1-(4-{1-[(3-ethyl-1,2-oxazol-5-yl)carbonyl]piperidin-4-yl}phenyl)-3-(imidazo[1,2-a]pyridin-7-ylmethyl)urea] displayed an IC50 of 4.38 nM. This IC50 is about 2.5-fold lower than that of the compound before.

Consider `O=C(NCc1ccn2ccnc2c1)Nc1ccc(C2CCN(C(=O)c3ccc4cccnc4c3)CC2)cc1` [Example 1032, 1-(imidazo[1,2-a]pyridin-7-ylmethyl)-3-{4-[1-(quinolin-7-ylcarbonyl)piperidin-4-yl]phenyl}urea], for which half-maximal inhibition (IC50) required 8.88 nM.

As to `O=C(NCc1ccn2ccnc2c1)Nc1ccc(C2CCN(C(=O)c3ccc(C4CC4)cn3)CC2)cc1` [Example 1132, 1-(4-{1-[(5-cyclopropylpyridin-2-yl)carbonyl]piperidin-4-yl}phenyl)-3-(imidazo[1,2-a]pyridin-7-ylmethyl)urea], the midpoint of inhibition, the IC50, lay at 8.96 nM.

Compound `Cc1cccn2cc(C(=O)N3CCC(c4ccc(NC(=O)NCc5ccn6ccnc6c5)cc4)CC3)nc12` [Example 1042, 1-(imidazo[1,2-a]pyridin-7-ylmethyl)-3-(4-{1-[(8-methylimidazo[1,2-a]pyridin-2-yl)carbonyl]piperidin-4-yl}phenyl)urea] gave an IC50 of 3.59 nM. This IC50 is about 2.5-fold lower than that of the compound before.

In the case of `CC1CC(C#N)(C(=O)N2CCC(c3ccc(C(=O)NCc4ccn5ccnc5c4)cc3)CC2)C1` (centres unmarked) [Example 1090, 4-{1-[(1-cyano-3-methylcyclobutyl)carbonyl]piperidin-4-yl}-N-(imidazo[1,2-a]pyridin-7-ylmethyl)benzamide], the IC50 was determined as 5.42 nM.

In turn, `O=C(NCc1ccn2ccnc2c1)c1ccc(C2CCN(C(=O)c3cc4ncccc4s3)CC2)cc1` [Example 983, N-(imidazo[1,2-a]pyridin-7-ylmethyl)-4-[1-(thieno[3,2-b]pyridin-2-ylcarbonyl)piperidin-4-yl]benzamide] showed an IC50 of 724 nM.

The compound `O=C(NCc1ccn2ccnc2c1)Nc1ccc(C2CCN(C(=O)c3cccnc3Cl)CC2)cc1` [Example 938, 1-(4-{1-[(2-chloropyridin-3-yl)carbonyl]piperidin-4-yl}phenyl)-3-(imidazo[1,2-a]pyridin-7-ylmethyl)urea] had an IC50 of 6.27 nM.

Turning to `Cn1nc(C(=O)N2CCC(c3ccc(C(=O)NCc4ccn5ccnc5c4)cc3)CC2)c2c1CCCC2` [Example 994, N-(imidazo[1,2-a]pyridin-7-ylmethyl)-4-{1-[(1-methyl-4,5,6,7-tetrahydro-1H-indazol-3-yl)carbonyl]piperidin-4-yl}benzamide], half-maximal inhibition (IC50) required 12.1 nM. This IC50 is about 1.9-fold higher than that of the compound before.

Regarding `COc1ccc(C(=O)N2CCC(c3ccc(C(=O)NCc4ccn5ccnc5c4)cc3)CC2)nc1OC` [Example 1115, 4-{1-[(5,6-dimethoxypyridin-2-yl)carbonyl]piperidin-4-yl}-N-(imidazo[1,2-a]pyridin-7-ylmethyl)benzamide], the concentration for half-maximal inhibition (IC50) was found to be 21.2 nM.

As to `COC[C@H]1CCCN1C(=O)c1ccc(C(=O)NCc2ccn3ccnc3c2)cc1` [Example 878, N-(imidazo[1,2-a]pyridin-7-ylmethyl)-4-{[(2R)-2-(methoxymethyl)pyrrolidin-1-yl]carbonyl}benzamide], the IC50 is greater than 10000 nM.

`O=C(Cc1ccccc1)Nc1ccc(C(=O)NCc2ccn3ccnc3c2)cc1` [Example 868, N-(imidazo[1,2-a]pyridin-7-ylmethyl)-4-[(phenylacetyl)amino]benzamide] displayed an IC50 of 86.9 nM.

With `COc1cc(C(=O)N2CCC(c3ccc(C(=O)NCc4ccn5ccnc5c4)cc3)CC2)ncc1C` [Example 1100, N-(imidazo[1,2-a]pyridin-7-ylmethyl)-4-{1-[(4-methoxy-5-methylpyridin-2-yl)carbonyl]piperidin-4-yl}benzamide], the IC50 was 8.7 nM.

With `CC(C)C1CC(C(=O)N2CCC(c3ccc(C(=O)NCc4ccn5ccnc5c4)cc3)CC2)CCO1` (centres unmarked) [Example 1008, N-(imidazo[1,2-a]pyridin-7-ylmethyl)-4-(1-{[2-(propan-2-yl)tetrahydro-2H-pyran-4-yl]carbonyl}piperidin-4-yl)benzamide], the IC50 worked out at 2.94 nM.

`O=C(NCc1ccn2ccnc2c1)Nc1ccc(C2CCN(C(=O)C3Cc4ccccc4O3)CC2)cc1` (centres unmarked) [Example 1024, 1-{4-[1-(2,3-dihydro-1-benzofuran-2-ylcarbonyl)piperidin-4-yl]phenyl}-3-(imidazo[1,2-a]pyridin-7-ylmethyl)urea] returned an IC50 of 3.52 nM.

In turn, `O=C(NCc1ccn2ccnc2c1)Nc1ccc(C2CCN(C(=O)c3ncc(F)cc3F)CC2)cc1` [Example 1066, 1-(4-{1-[(3,5-difluoropyridin-2-yl)carbonyl]piperidin-4-yl}phenyl)-3-(imidazo[1,2-a]pyridin-7-ylmethyl)urea] registered an IC50 of 5.7 nM. Against the preceding compound, the IC50 is about 1.6-fold higher.

For the compound `CC1Cc2cc(C(=O)N3CCC(c4ccc(NC(=O)NCc5ccn6ccnc6c5)cc4)CC3)ccc2O1` (centres unmarked) [Example 1046, 1-(imidazo[1,2-a]pyridin-7-ylmethyl)-3-(4-{1-[(2-methyl-2,3-dihydro-1-benzofuran-5-yl)carbonyl]piperidin-4-yl}phenyl)urea], inhibition was half-maximal at 4.61 nM (IC50). The IC50 values of the last two compounds are within 1.5-fold of each other.

Compound `O=C(NCc1ccn2ccnc2c1)Nc1ccc(C2CCN(C(=O)[C@@H]3COc4ccccc4O3)CC2)cc1` [Example 1012, 1-(4-{1-[(2S)-2,3-dihydro-1,4-benzodioxin-2-ylcarbonyl]piperidin-4-yl}phenyl)-3-(imidazo[1,2-a]pyridin-7-ylmethyl)urea] gave an IC50 of 8.36 nM.

`O=C(NCc1ccn2ccnc2c1)Nc1ccc(C2CCN(C(=O)c3cc(Cl)ncc3F)CC2)cc1` [Example 1016, 1-(4-{1-[(2-chloro-5-fluoropyridin-4-yl)carbonyl]piperidin-4-yl}phenyl)-3-(imidazo[1,2-a]pyridin-7-ylmethyl)urea] returned a 50% inhibitory concentration (IC50) of 2.19 nM.

On to `O=C(NCc1ccn2ccnc2c1)c1ccc(NC(=O)C(F)(F)c2ccccc2)cc1` [Example 895, 4-{[difluoro(phenyl)acetyl]amino}-N-(imidazo[1,2-a]pyridin-7-ylmethyl)benzamide], for which the IC50 was found to be 730 nM.

Compound `O=C(NCc1ccn2ccnc2c1)Nc1ccc(C2CCN(C(=O)C3CC=CCC3)CC2)cc1` (centres unmarked) [Example 945, 1-{4-[1-(cyclohex-3-en-1-ylcarbonyl)piperidin-4-yl]phenyl}-3-(imidazo[1,2-a]pyridin-7-ylmethyl)urea] showed an IC50 of 2.38 nM.

For the compound `Cc1cc(C(=O)N2CCC(c3ccc(NC(=O)NCc4ccn5ccnc5c4)cc3)CC2)cnc1C` [Example 1059, 1-(4-{1-[(5,6-dimethylpyridin-3-yl)carbonyl]piperidin-4-yl}phenyl)-3-(imidazo[1,2-a]pyridin-7-ylmethyl)urea], 16.4 nM corresponded to half-maximal inhibition (IC50).

Turning to `CC1(Cn2cc(-c3ccc(C(=O)NCc4cn5ccnc5cn4)s3)cn2)CCOCC1` [Example 861, N-(imidazo[1,2-a]pyrazin-6-ylmethyl)-5-{1-[(4-methyltetrahydro-2H-pyran-4-yl)methyl]-1H-pyrazol-4-yl}thiophene-2-carboxamide], the IC50 is 0.574 nM.

Compound `CC1(Cn2cc(-c3ccc(C(=O)NCc4ccn5ccnc5c4)s3)cn2)CCN(C(=O)CCNC(=O)CSC[C@H](N)C(=O)O)CC1` [Example 1166, S-{2-[(3-{4-[(4-{5-[(imidazo[1,2-a]pyridin-7-ylmethyl)carbamoyl]thiophen-2-yl}-1H-pyrazol-1-yl)methyl]-4-methylpiperidin-1-yl}-3-oxopropyl)amino]-2-oxoethyl}-L-cysteine] came in with a half-maximal inhibitory concentration (IC50) of 26.1 nM. Against the preceding compound, the IC50 is about 45-fold higher.

For `N#Cc1cc(F)cc(C(=O)N2CCC(c3ccc(NC(=O)NCc4ccn5ccnc5c4)cc3)CC2)c1` [Example 1048, 1-{4-[1-(3-cyano-5-fluorobenzoyl)piperidin-4-yl]phenyl}-3-(imidazo[1,2-a]pyridin-7-ylmethyl)urea], the IC50 worked out at 8.27 nM.

The compound `CCc1c(C(=O)N2CCC(c3ccc(NC(=O)NCc4ccn5ccnc5c4)cc3)CC2)nnn1CC` [Example 1128, 1-(4-{1-[(1,5-diethyl-1H-1,2,3-triazol-4-yl)carbonyl]piperidin-4-yl}phenyl)-3-(imidazo[1,2-a]pyridin-7-ylmethyl)urea] registered an IC50 of 6.05 nM.

In turn, `N#Cc1ccc(C(=O)N2CCC(c3ccc(NC(=O)NCc4ccn5ccnc5c4)cc3)CC2)c(Cl)c1` [Example 954, 1-{4-[1-(2-chloro-4-cyanobenzoyl)piperidin-4-yl]phenyl}-3-(imidazo[1,2-a]pyridin-7-ylmethyl)urea] yielded an IC50 of 2.76 nM.

Turning to `CC(Oc1cccc(F)c1)C(=O)N1CCC(c2ccc(NC(=O)NCc3ccn4ccnc4c3)cc2)CC1` (centres unmarked) [Example 1065, 1-(4-{1-[2-(3-fluorophenoxy)propanoyl]piperidin-4-yl}phenyl)-3-(imidazo[1,2-a]pyridin-7-ylmethyl)urea], 1.43 nM corresponded to half-maximal inhibition (IC50). This IC50 is about 1.9-fold lower than that of the compound before.

In turn, `Cc1cc(C(=O)N2CCC(c3ccc(C(=O)NCc4ccn5ccnc5c4)cc3)CC2)n(C(C)(C)C)n1` [Example 981, 4-{1-[(1-tert-butyl-3-methyl-1H-pyrazol-5-yl)carbonyl]piperidin-4-yl}-N-(imidazo[1,2-a]pyridin-7-ylmethyl)benzamide] had an IC50 of 6.54 nM.

`CC(C)(C)Cn1cc(-c2ccc(C(=O)NCc3ccn4ccnc4c3)s2)cn1` [Example 883, 5-[1-(2,2-dimethylpropyl)-1H-pyrazol-4-yl]-N-(imidazo[1,2-a]pyridin-7-ylmethyl)thiophene-2-carboxamide] showed an IC50 of 0.22 nM.

For `Cc1nn(C)c(C(=O)N2CCC(c3ccc(C(=O)NCc4ccn5ccnc5c4)cc3)CC2)c1Cl` [Example 1087, 4-{1-[(4-chloro-1,3-dimethyl-1H-pyrazol-5-yl)carbonyl]piperidin-4-yl}-N-(imidazo[1,2-a]pyridin-7-ylmethyl)benzamide], it took 1.68 nM to reach half-maximal inhibition (IC50).

The IC50 is the midpoint of a concentration-inhibition curve. Low readings indicate greater potency, high ones weaker potency.
